Test results taken from patent publication US20130337564A1, “Treatment of Pluripotent Cells” (Janssen Biotech, Inc., priority 2012, published 2013).

Experiments:
[1] = tested on: human embryonic stem cell line H1; assay: Dose titration secondary assay: cell number, H1; type: cell-based; conditions: Homo sapiens, Embryonic stem cell, positive control (Wnt3a/Activin A) normalized to 1.000; for activity at 0.156 µM: Conc 0.156 μM; for activity at 0.313 µM: Conc 0.313 μM; for activity at 0.625 µM: Conc 0.625 μM; for activity at 1.25 µM: Conc 1.25 μM; for activity at 2.5 µM: Conc 2.5 μM; for activity at 5 µM: Conc 5 μM; for activity at 10 µM: Conc 10 μM
Description: It was important to confirm the activity of hits identified from primary screening and further analyze the range of activity by dose titration. New samples of a selective subset of primary screening hits were obtained as dry powders, solubilized to make fresh stock reagents, and diluted into secondary confirmation assays to evaluate effects on human embryonic stem cells.
Culture of two human embryonic stem cells (H1 and H9) was conducted as described in Example 1. Colonies of cells were maintained in an undifferentiated, pluripotent state on Matrigel™ ([…]) coated polystyrene plastic, using a 1:30 dilution of Matrigel™ in DMEM:F12 to coat the surface. Cells were split by enzymatic passage every four days on average. Passage was performed by exposing cell monolayers to a solution of collagenase (1 mg/ml; Sigma-Aldrich) for 10 to 60 minutes at 37° C. followed by gentle scraping with a pipette tip to recover cell clusters. Clusters were allowed to sediment by gravity, then washed to remove residual collagenase. Cell clusters were split at a 1:3 ratio for maintenance culture or a 1:1 ratio for subsequent assay. The human embryonic stem cell lines were maintained at less than passage 50 and routinely evaluated for normal karyotypic phenotype and absence of mycoplasma contamination.
Cell clusters of the H1 or H9 human embryonic stem cell lines used in the assay were evenly resuspended in culture medium and plated onto Matrigel™-coated 96-well Packard VIEWPLATES (PerkinElmer) in volumes of 100 μl/well. MEF conditioned medium supplemented with 8 ng/ml bFGF was used for initial plating and expansion. Daily feeding was conducted by aspirating spent culture medium from each well and replacing with an equal volume of fresh medium. Cultures were allowed to expand one to three days after plating prior to initiating assay. Plates were maintained at 37° C., 5% CO2 in a humidified box for the duration of assay.
A subset of hits resulting from primary screening was used for follow-up study and subsequent secondary assays. Twenty compounds available as dry powders were solubilized as 10 mM stocks in DMSO and stored dessicated at […] until use Immediately prior to assay, compound stocks were diluted 1:1000 to make 10 μM test compound in DMEM:F12 base medium (Invitrogen) supplemented with 0.5% FCS (HyClone) and 100 ng/ml Activin A (R&D Biosystems). This was further diluted two-fold in series to make a seven point dilution curve for each compound, also in DMEM:F12 base medium with 0.5% FCS and 100 ng/ml Activin A.
Assay was initiated by aspirating culture medium from cell monolayers in each well followed by three washes in PBS to remove residual growth factors and serum. Test volumes of 100 μl per well were added back containing medium with 0.5% FCS and different concentrations of inhibitor compounds with 100 ng/ml Activin A, without Wnt3a. Positive control wells contained the same base medium with 0.5% FCS and with 20 ng/ml Wnt3a (R&D Biosystems) in the absence of test compound. Negative control wells contained the same base medium with 0.5% FCS, in the absence of Activin A, Wnt3a, or test compound. Assay wells were aspirated and fed again with identical concentrations of test compound or control solutions on day 2 of assay. On days 3 and 4, all assay wells were aspirated and fed with DMEM:F12 supplemented with 2% FCS and 100 ng/ml Activin A in the absence of both test compound or Wnt3a. Parallel negative control wells were maintained on days 3 and 4 in DMEM:F12 base medium with 2% FCS.
At the end of culture, cells in 96-well plates were washed twice with PBS then fixed with 4% paraformaldehyde at room temperature for 20 minutes, washed three times more with PBS, and then permeabilized with 0.5% Triton X-100 for 20 minutes at room temperature. After fixing and permeabilizing, cells were washed again three times with PBS and then blocked with 4% chicken serum (Invitrogen) in PBS for 30 minutes at room temperature. […]

[2] = MTS viability (toxicity) assay of cells expressing pluripotency markers; type: cell-based, human; conditions: human, MTS on day 4, relative to Activin A + Wnt3a positive control, read-out: % Control (percentage viability of control); for viability at 4 days, 2.5 μM: cmpd conc 2.5 μM; for viability at 4 days, 5 μM: cmpd conc 5 μM; for viability at 4 days, 10 μM: cmpd conc 10 μM
Procedure, shortened: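 Cells expressing pluripotency markers, derived from human embryonic stem cells, were plated at 20,000 cells per well in 96-well clear-bottom plates and cultured overnight. Test compounds were applied in assay medium on days 1 and 2, and compound-free medium on days 3 and 4. On day 4, MTS was added and optical density at 490 nm was read in duplicate.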

Row | SMILES | activity at 0.156 µM [1] | activity at 0.313 µM [1] | activity at 0.625 µM [1] | activity at 1.25 µM [1] | activity at 2.5 µM [1] | activity at 5 µM [1] | activity at 10 µM [1] | viability at 4 days, 2.5 μM [2] | viability at 4 days, 5 μM [2] | viability at 4 days, 10 μM [2]
1 | O=C1NC(=O)C(c2cn(CCOCCOCCNC3CCCc4ccccc43)c3ccccc23)=C1c1cn(CCNC2CCCc3ccccc32)c2ccccc12 (centres unmarked) [Compound 144, 3-{1-[2-(1,2,3,4-Tetrahydronaphthalen-1-ylamino)ethyl]-1H-indol-3-yl}-4-(1-{2-[(2-{[2-(1,2,3,4-tetrahydronaphthalen-1-ylamino)ethyl]oxy}ethyl)oxy]ethyl}-1H-indol-3-yl)-1H-pyrrole-2,5-dione] | 59.4% | 73.4% | 89.5% | 55.2% | 19.2% | 0% | 0% | 23.9% | 2.5% | 2.4%
2 | O=C1NC(=O)C(c2cn(-c3cccnc3)c3ccccc23)=C1c1cn(CCO)c2ccccc12 [Compound 206, 3-[1-(2-Hydroxyethyl)-1H-indol-3-yl]-4-(1-pyridin-3-yl-1H-indol-3-yl)-1H-pyrrole-2,5-dione] | 80.4% | 93.1% | 109% | 112% | 102% | 116% | 3.9% | 93.1% | 90.2% | 7.3%
3 | COC(=O)c1cncc(-n2cc(C3=C(c4nn(CCO)c5ccccc45)C(=O)NC3=O)c3cc(Cl)ccc32)c1 [Compound 150, Methyl 5-(5-chloro-3-{4-[1-(2-hydroxyethyl)-1H-indazol-3-yl]-2,5-dioxo-2,5-dihydro-1H-pyrrol-3-yl}-1H-indol-1-yl)pyridine-3-carboxylate] | 104% | 124% | 102% | 121% | 129% | 116% | 5.2% | 94.8% | 84.9% | 14.3%
4 | Cc1c[nH]c(-c2cnc(NCCNc3ccc(C#N)cn3)nc2-c2ccc(Cl)cc2Cl)n1 [Compound 221, 6-[(2-{[4-(2,4-Dichlorophenyl)-5-(4-methyl-1H-imidazol-2-yl)pyrimidin-2-yl]amino}ethyl)amino]pyridine-3-carbonitrile] | 108% | 113% | 111% | 112% | 89.6% | 88.9% | 19.3% | 112% | 82.3% | 67.5%
5 | CN(C)c1cccc(-n2cc(C3=C(c4nn(CCO)c5ccccc45)C(=O)NC3=O)c3ccccc32)c1 [Compound 145, 3-{1-[3-(Dimethylamino)phenyl]-1H-indol-3-yl}-4-[1-(2-hydroxyethyl)-1H-indazol-3-yl]-1H-pyrrole-2,5-dione] | 46.9% | 66.5% | 71.3% | 128% | 135% | 33.9% | 2.1% | 94.5% | 68.4% | 
6 | O=C1NC(=O)C(c2nn(CCO)c3ccccc23)=C1c1cn(-c2cncnc2)c2ccccc12 [Compound 226, 3-[1-(2-Hydroxyethyl)-1H-indazol-3-yl]-4-(1-pyrimidin-5-yl-1H-indol-3-yl)-1H-pyrrole-2,5-dione] | 77.4% | 78.5% | 80.5% | 73.9% | 64% | 45.8% | 29% | 86.3% | 86.7% | 78.9%
7 | CN(C)CCCn1c2c(c3ccccc31)C1=C(C(=O)NC1=O)N(c1cccc(Cl)c1)C2 [Compound 101, 4-(3-Chlorophenyl)-6-[3-(dimethylamino)propyl]-5,6-dihydropyrrolo[3′,4′:5,6]pyrido[3,4-b]indole-1,3(2H,4H)-dione] | 81.2% | 61.7% | 69.9% | 116% | 100% | 76.8% | 49.6% | 100% | 95.9% | 1.3%
8 | O=C1NC(=O)C2=C1Nc1cccc(c1)OCCC/C=C\CCCOc1cccc2c1 [Compound 233, (11Z)-8,9,10,13,14,15-Hexahydro-2,6:17,21-di(metheno)pyrrolo[3,4-h][1,15,7]dioxazacyclotricosine-22,24(1H,23H)-dione] | 83.2% | 79.1% | 73.6% | 63.6% | 43.8% | 8.9% | 0% | 41.6% | 0% | 1.5%
9 | O=C1NC(=O)C(c2cn(CCOCCOCCO)c3ccccc23)=C1c1cn(CCO)c2ccccc12 [Compound 110, 3-[1-(2-Hydroxyethyl)-1H-indol-3-yl]-4-{1-[2-({2-[(2-hydroxyethyl)oxy]ethyl}oxy)ethyl]-1H-indol-3-yl}-1H-pyrrole-2,5-dione] | 97.4% | 116% | 119% | 111% | 117% | 53% | 12.9% | 104% | 98.5% | 81.6%
